IC50 data for 25 compounds are collected here from patent USRE46630E1, “Substituted 4-pyridones and their use as inhibitors of neutrophil elastase activity” (Boehringer Ingelheim International GmbH, priority 2012, dated 2017).

As a reminder, the IC50 is the concentration needed to halve the response being measured. A low value points to greater potency in that assay.

The target in the assay is T1, Human neutrophil elastase (Homo sapiens, UniProt P08246).
T1 construct: purchased Calbiochem 324681
T1 sequence (P08246 30-267): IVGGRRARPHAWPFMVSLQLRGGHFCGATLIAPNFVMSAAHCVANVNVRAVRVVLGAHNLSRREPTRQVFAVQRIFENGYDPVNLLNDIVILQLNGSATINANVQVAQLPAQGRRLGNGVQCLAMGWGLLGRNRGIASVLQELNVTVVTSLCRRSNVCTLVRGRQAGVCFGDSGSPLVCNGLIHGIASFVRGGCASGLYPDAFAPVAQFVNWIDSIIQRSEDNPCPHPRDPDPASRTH
Put plainly: Human Neutrophil Elastase Assay. Type of assay: biochemical. The following applies: Neutrophil Elastase assay; substrate MeOSuc-Ala-Ala-Pro-Val-AMC 250 μM; 15 min preincubation, 60 min incubation at room temperature; pH 7.5. As to the method: Human Neutrophil Elastase Assay
All other materials were of the highest grade commercially available.
The following buffers were used: Compound buffer: 100 mM Tris, 500 mM NaCl, adjusted to pH 7.5; Assay buffer: 100 mM Tris, 500 mM NaCl, adjusted to pH 7.5, containing 0.01% BSA.
Assay conditions: Test compounds were prediluted in DMSO and subsequently in compound buffer (5% DMSO final). […] After inactivation of the enzyme, fluorescence intensities were measured at 380 nm excitation and 460 nm emission wavelengths.
Each plate contains wells with a high value control (DMSO+enzyme+substrate) and wells with a low value control (DMSO+inactivated enzyme+substrate). […] Means of low values were taken as 0%, means of high values as 100%.

On to `Cc1c(-c2cccc(C(F)(F)F)c2)c(=O)c(C(=O)NCc2ccc(=O)[nH]c2)cn1Cc1ccc(C#N)cc1` [Example 1.42], for which half-maximal inhibition (IC50) was put at 5.2 nM.

`Cc1c(-c2cccc(C(F)(F)F)c2)c(=O)c(C(=O)NCCc2ccccn2)cn1Cc1ccc(C#N)cc1` [Example 1.43] returned an IC50 of 8.9 nM.

As to `Cc1c(-c2cccc(C(F)(F)F)c2)c(=O)c(C(=O)NCCc2cccnc2)cn1Cc1ccc(C#N)cc1` [Example 1.44], inhibition was half-maximal at 7.9 nM (IC50).

Consider `Cc1c(-c2cccc(C(F)(F)F)c2)c(=O)c(C(=O)NCCc2ccncc2)cn1Cc1ccc(C#N)cc1` [Example 1.45], for which the IC50 stood at 7.6 nM.

In turn, `Cc1c(-c2cccc(C(F)(F)F)c2)c(=O)c(C(=O)NCc2cccnc2)cn1Cc1ccc(C#N)cc1` [Example 1.46] displayed an IC50 of 5.9 nM.

As for `Cc1c(-c2cccc(C(F)(F)F)c2)c(=O)c(C(=O)NCC2CCCO2)cn1Cc1ccc(C#N)cc1` (stereo not shown) [Example 1.47], the IC50 came to 22 nM.

`Cc1c(-c2cccc(C(F)(F)F)c2)c(=O)c(C(=O)NCc2ccccn2)cn1Cc1ccc(C#N)cc1` [Example 1.48] had an IC50 of 4.1 nM.

Compound `Cc1c(-c2cccc(C(F)(F)F)c2)c(=O)c(C(=O)NCCN2CCOCC2)cn1Cc1ccc(C#N)cc1` [Example 1.49] gave an IC50 of 10.4 nM.

`Cc1c(-c2cccc(C(F)(F)F)c2)c(=O)c(C(=O)NCc2ccncc2)cn1Cc1ccc(C#N)cc1` [Example 1.50]: 1.4 nM corresponded to half-maximal inhibition (IC50).

`CCNC(=O)c1cn(Cc2ccc(C#N)cc2)c(C)c(-c2cccc(C(F)(F)F)c2)c1=O` [Example 1.51] showed an IC50 of 10.7 nM.

As to `Cc1c(-c2cccc(C(F)(F)F)c2)c(=O)c(C(N)=O)cn1Cc1ccc(C#N)cc1` [Example 1.52], the IC50 stood at 9.6 nM.

In the case of `Cc1c(-c2cccc(C(F)(F)F)c2)c(=O)c(C(=O)N[C@H]2CCC(=O)NC2)cn1Cc1ccc(C#N)cc1` [Example 1.53], the IC50 was found to be 9 nM.

Take `Cc1c(-c2cccc(C(F)(F)F)c2)c(=O)c(C(=O)NCC(=O)N2CCCC2)cn1Cc1ccc(C#N)cc1` [Example 1.54]: the midpoint of inhibition, the IC50, lay at 41.5 nM.

In turn, `Cc1c(-c2cccc(C(F)(F)F)c2)c(=O)c(C(=O)NC2CCCNC2=O)cn1Cc1ccc(C#N)cc1` (stereo not shown) [Example 1.55] registered an IC50 of 4.9 nM. This IC50 is about 8.5-fold lower than that of the compound before.

For `COc1ccc(CNC(=O)c2cn(Cc3ccc(C#N)cc3)c(C)c(-c3cccc(C(F)(F)F)c3)c2=O)cn1` [Example 1.56], the half-inhibitory concentration (IC50) was determined as 4.6 nM.

Compound `Cc1c(-c2cccc(C(F)(F)F)c2)c(=O)c(C(=O)NC2CCN(C)C2=O)cn1Cc1ccc(C#N)cc1` (stereo not shown) [Example 1.57] registered an IC50 of 6.8 nM.

In the case of `Cc1c(-c2cccc(C(F)(F)F)c2)c(=O)c(C(=O)N[C@H]2CCNC2=O)cn1Cc1ccc(C#N)cc1` [Example 1.58], the IC50 stood at 8.1 nM.

For the compound `Cc1c(-c2cccc(C(F)(F)F)c2)c(=O)c(C(=O)N[C@@H]2CCNC2=O)cn1Cc1ccc(C#N)cc1` [Example 1.59], half-maximal inhibition (IC50) required 10.5 nM.

As to `Cc1nc(CNC(=O)c2cn(Cc3ccc(C#N)cc3)c(C)c(-c3cccc(C(F)(F)F)c3)c2=O)no1` [Example 1.60], the IC50 was determined as 13.3 nM. This IC50 and that of the compound before are within 1.5-fold of each other.

`Cc1c(-c2cccc(C(F)(F)F)c2)c(=O)c(C(=O)NC2CC(=O)N(C)C2)cn1Cc1ccc(C#N)cc1` (stereo not shown) [Example 1.61] had an IC50 of 11.4 nM. This IC50 and that of the compound before are within 1.5-fold of each other.

In the case of `Cc1c(-c2cccc(C(F)(F)F)c2)c(=O)c(C(=O)NC2CCC(=O)N(C)C2)cn1Cc1ccc(C#N)cc1` (stereo not shown) [Example 1.62], it took 10.4 nM to reach half-maximal inhibition (IC50).

`COC(=O)CNC(=O)c1cn(Cc2ccc(C#N)cc2)c(C)c(-c2cccc(C(F)(F)F)c2)c1=O` [Example 1.63] displayed an IC50 of 22.5 nM.

Compound `Cc1c(-c2cccc(C(F)(F)F)c2)c(=O)c(C(=O)NC2CCS(=O)(=O)C2)cn1Cc1ccc(C#N)cc1` (stereo not shown) [Example 1.64] came in with an IC50 of 17.2 nM.

In the case of `Cc1c(-c2cccc(C(F)(F)F)c2)c(=O)c(C(=O)NCC(=O)N(C)C)cn1Cc1ccc(C#N)cc1` [Example 1.65], the IC50 was 38.5 nM.

The compound `Cc1c(-c2cccc(C(F)(F)F)c2)c(=O)c(C(=O)NCCS(C)(=O)=O)cn1Cc1ccc(C#N)cc1` [Example 1.66] registered an IC50 of 6.2 nM.
